Assays:
DHPS = biological target: T1, DHPS (Homo sapiens, UniProt P49366); assay: Hyp'Assay without DOHH: deoxyhypusination of eIF5A revealed with Hpu98 antibody; assay type: biochemical; conditions: 5 μM spermidine
T1 construct: host or cells: E. coli BL21 (DE3)
T1 sequence (P49366 1-369): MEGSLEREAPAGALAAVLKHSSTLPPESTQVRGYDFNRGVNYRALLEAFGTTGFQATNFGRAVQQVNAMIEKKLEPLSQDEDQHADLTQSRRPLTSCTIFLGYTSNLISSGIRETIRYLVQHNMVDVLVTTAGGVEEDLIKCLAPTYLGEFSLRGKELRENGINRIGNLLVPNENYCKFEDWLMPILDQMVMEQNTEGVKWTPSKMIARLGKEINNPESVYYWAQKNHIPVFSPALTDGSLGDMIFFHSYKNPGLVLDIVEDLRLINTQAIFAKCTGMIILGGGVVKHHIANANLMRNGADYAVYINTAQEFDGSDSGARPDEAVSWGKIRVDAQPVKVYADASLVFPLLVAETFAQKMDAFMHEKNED
From the text: To address this issue, we compared the ability of GC7 to inhibit DHPS or DOHH by adding GC7 during the first step of the Hyp’Assay; when DHPS mediates the deoxyhypusination reaction (Fig 2A), or only during the second step, when DOHH hydroxylate deoxyhypusinated eIF5A. […] This confirms the specificity of GC7 towards DHPS. When finding new hypusination inhibitors adding them during the first or the second step of the Hyp’Assay will allow us to determine if the inhibition affects DHPS or DOHH. Another way to discriminate between DHPS or DOHH inhibitors would be to use Hpu98, an antibody that recognized both hypusinated and deoxyhypusinated eIF5A, instead of Hpu24, which is specific for hypusinated eIF5A [18]. […] We performed a new Hyp’Assay by omitting DOHH in the reaction mix and using the Hpu98 antibody. First, we performed a dose response experiment with spermidine at pH: 8.0 and 9.0 (Fig 3E). The Hyp’Assay allows the detection of deoxyhypusinated eIF5A in a spermidine-dependent manner. Under these conditions, deoxyhypusination was equally efficient at both pH tested. […] We also tested the ability of GC7 (Fig 3F) and CPX or EDTA (Fig 3G) to inhibit DHPS. […] This provided us with another method to distinguish between DHPS and DOHH inhibitors.
The cell-free reaction described in 4.4 is performed in triplicates in a 96-wells plate (MaxiSorp, ThermoFisher) in the presence of 3 μg of eIF5A, 2 μg of DHPS, and 2 μg of DOHH by well. The reaction product, hypusinated eIF5A, is adsorbed onto the plate overnight at 4°C. The plate is washed (100 μL/well) thrice with PBS-T (PBS– 0.05% Tween20), then saturated with 1% non-fat dry milk in PBS-T for 2 h at room temperature. The plate is washed thrice with PBS-T and incubated overnight at 4°C with the anti-hypusine antibody (1:2000 in saturation buffer, 50 μL/well). The next day and after 5 washes with PBS-T, HRP-coupled anti-rabbit secondary antibody diluted 1:5000 in saturation buffer (50 μL/well) is added for 2 h at room temperature.

[1] = system: eIF5A hypusination in HT29 cells; assay: eIF5A hypusination in intact HT29 cells, Western blot; assay type: cell-based; conditions: Homo sapiens, HT-29, 24 h
Experimental: We tested the ability of the GC7 analogs to inhibit hypusination in intact cells. MCF-7 cells (Fig 5B), a classical model of breast cancer cell line, and HT29 cells (Fig 5C), a cell model of colorectal cancer, were treated with 40 μM of GC7, 1, 2, 3, and 4 for 24h. Cells were lysed and analyzed by Western blot. As observed, none of the molecules modified eIF5A expression. […] GC7 analogs inhibited hypusination from 35 to 55%.
The human breast cancer cell line MCF7 (HTB-22 ATCC) and colorectal adenocarcinoma HT29 (HTB-38 ATCC) were cultured in DMEM (Gibco) supplemented with 10% FBS (Dutscher), 10 U/mL penicillin, and 10 mg/mL streptomycin. […]
After treatment, cells were washed with ice-cold PBS and lysed in RIPA Buffer (50 mM Tris pH 7.5, 150 mM NaCl, 0.1% SDS, 0.5% Na Deoxycholate, 5 mM NaF, 2.5 mM Na4P2O7, 1% NP4O) containing a protease inhibitor cocktail (complete Roche). […] The membranes were probed with the appropriate primary antibody that was detected by horseradish peroxidase-conjugated secondary antibody (Jackson Immunoresearch) and visualized by chemiluminescence (ECL Amersham RPN 3244) using a Fuji LAS-4000 imager. ImageJ® software was used to quantify band intensity and the ratios of proteins of interest were normalized to a loading control. […]

N=C(N)NCCCCCCCN [GC7, N1-guanyl-1,7-diaminoheptane]
ability to inhibit deoxyhypusination (DHPS): efficient in inhibiting deoxyhypusination
Relative deoxyhypusination of eIF5A, Mean (quantification from Figure 3F, 3G) (DHPS; CTRL 100,0, inhibitor concentration not given): 7,531 a.u
inhibition at 40 µM [1]: 80%
